From ChEMBL document CHEMBL1201862, “PubChem BioAssay data set” (2004)
Activity calls are given as the source filed them.

Legend:
[1] = target: T1, Cysteine protease ATG4B (Homo sapiens, UniProt Q9Y4P1); format: functional;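 also: Fluorescence-based dose-response confirmation assay measuring inhibition of ATG4B activity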
T1 sequence (Q9Y4P1 whole entry): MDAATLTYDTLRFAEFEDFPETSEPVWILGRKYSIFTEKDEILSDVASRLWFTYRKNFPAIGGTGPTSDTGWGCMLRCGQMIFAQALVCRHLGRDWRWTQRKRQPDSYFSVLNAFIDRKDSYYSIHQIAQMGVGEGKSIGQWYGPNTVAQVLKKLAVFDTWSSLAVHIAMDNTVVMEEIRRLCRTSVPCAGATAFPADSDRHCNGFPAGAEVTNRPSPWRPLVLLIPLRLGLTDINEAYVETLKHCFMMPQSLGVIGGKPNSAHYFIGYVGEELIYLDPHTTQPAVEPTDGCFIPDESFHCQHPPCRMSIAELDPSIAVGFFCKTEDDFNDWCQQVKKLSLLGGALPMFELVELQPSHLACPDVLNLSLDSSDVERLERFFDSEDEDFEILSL

[2] = target: Phospholipase A2 (Homo sapiens, UniProt P04054); format: functional;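 also: confirmatory dose-response counterscreen on phospholipase A2, testing hits that came from an ultra-high-throughput screen for ATG4B inhibitors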
[3] = tested on: HEK293; assay: cells; conditions: Homo sapiens
[4] = tested on: HEK293; assay: cells; conditions: Homo sapiens; remark: listed apart in the source
[5] = NIH-3T3 fibroblast cytotoxicity, dose response, cytotoxicity control, cell-based, fluorescence, Alamar Blue, secondary assay (AID 2327); format: functional;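 also: NIH-3T3 mouse fibroblasts cultured with fluconazole at 8 µg/mL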
[6] = luciferase reporter signal suppression in cells – H4 neuroglioma cells, luminescence, dose response (AID 1990); format: functional, cell-based
[7] = Luminescence Cell-Based Dose Response HTS to Identify Inhibitors of 5'UTR Stem-Loop Driven Prion Protein mRNA Translation in H4 Neuroglioblastoma Cells. [Related pubchem assays: 1827 (Project Summary), 1813 (Primary HTS)]; format: functional
[8] = target: T2, Heat shock factor protein 1 (Mus musculus, UniProt P38532); assay: decrease of HSF1-responsive luciferase luminescence – cell-based, NIH3T3, dose retest, confirmation (AID 2382); format: functional;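 also: NIH3T3 fibroblasts with HSF1-driven luciferase reporter stressed by proteasome inhibitor MG132; luminescence from HSF1-driven luciferase expression after 8 hours of MG132 stress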
T2 sequence (P38532 whole entry): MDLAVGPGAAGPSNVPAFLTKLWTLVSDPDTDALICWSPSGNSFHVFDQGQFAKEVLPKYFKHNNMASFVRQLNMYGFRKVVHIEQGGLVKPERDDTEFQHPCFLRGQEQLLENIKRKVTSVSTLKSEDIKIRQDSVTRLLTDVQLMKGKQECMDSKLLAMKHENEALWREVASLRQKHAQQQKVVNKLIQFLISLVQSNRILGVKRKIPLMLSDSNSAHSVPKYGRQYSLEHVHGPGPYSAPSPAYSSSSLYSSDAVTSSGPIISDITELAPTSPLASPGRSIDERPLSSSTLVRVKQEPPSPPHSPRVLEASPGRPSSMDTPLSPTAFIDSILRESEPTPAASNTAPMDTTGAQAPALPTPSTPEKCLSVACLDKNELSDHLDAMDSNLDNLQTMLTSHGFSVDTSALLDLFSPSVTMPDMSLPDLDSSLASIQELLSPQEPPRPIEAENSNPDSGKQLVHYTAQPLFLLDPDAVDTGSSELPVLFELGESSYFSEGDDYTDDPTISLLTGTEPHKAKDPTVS

[9] = alpha-synuclein stem-loop luciferase translation blockers – H4 neuroglioma cells, luminescence, confirmation (AID 1988); format: functional, cell-based
[10] = Trypanosoma cruzi growth suppression in host cells – NIH3T3 host cells, beta-gal luminescence, confirmation (AID 2044); format: functional, cell-based;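 also: intracellular parasites grown in NIH/3T3 mouse fibroblasts as host cells; luminescent beta-galactosidase reporter signal from transgenic T. cruzi replicating inside host cells; inhibitors lower the luminescence signal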
[11] = NIH3T3 cell viability loss – ATP luminescence, mouse fibroblasts, counter-screen, dose response (AID 2010); format: functional, cell-based;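 also: cells exposed to compound for about 90 hours before reading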
[12] = Intein inhibitors as potential Tuberculosis drugs, a cytotoxicity screen. [Related pubchem assays (depositor defined):AID2221, AID2223, AID434968, AID435010, AID449749, AID449750, AID489010]; format: functional
[13] = HEK-293T cell viability reduction – luminescence, B-cell screen hits, cytotoxicity control for BCR NF-kB inhibitor project, dose response (AID 489021); format: functional, cell-based;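 also: HEK-293T cells carrying an NF-kB luciferase reporter; cells exposed to compound for about 14 hours before viability readout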
[14] = tested on: HEK293; assay: EBV LMP1 TES2 canonical NF-kB signalling blockers – cell-based, HEK293, luciferase, cherry-pick, dose response (AID 588343); format: functional; conditions: Homo sapiens
[15] = target: T3, Replicative DNA helicase DnaB (Mycobacterium tuberculosis, UniProt P9WMR3); assay: DnaB intein splicing inhibitors, dose response, biochemical, cell-free fluorescence (AID 449749); format: functional
T3 sequence (P9WMR3 whole entry): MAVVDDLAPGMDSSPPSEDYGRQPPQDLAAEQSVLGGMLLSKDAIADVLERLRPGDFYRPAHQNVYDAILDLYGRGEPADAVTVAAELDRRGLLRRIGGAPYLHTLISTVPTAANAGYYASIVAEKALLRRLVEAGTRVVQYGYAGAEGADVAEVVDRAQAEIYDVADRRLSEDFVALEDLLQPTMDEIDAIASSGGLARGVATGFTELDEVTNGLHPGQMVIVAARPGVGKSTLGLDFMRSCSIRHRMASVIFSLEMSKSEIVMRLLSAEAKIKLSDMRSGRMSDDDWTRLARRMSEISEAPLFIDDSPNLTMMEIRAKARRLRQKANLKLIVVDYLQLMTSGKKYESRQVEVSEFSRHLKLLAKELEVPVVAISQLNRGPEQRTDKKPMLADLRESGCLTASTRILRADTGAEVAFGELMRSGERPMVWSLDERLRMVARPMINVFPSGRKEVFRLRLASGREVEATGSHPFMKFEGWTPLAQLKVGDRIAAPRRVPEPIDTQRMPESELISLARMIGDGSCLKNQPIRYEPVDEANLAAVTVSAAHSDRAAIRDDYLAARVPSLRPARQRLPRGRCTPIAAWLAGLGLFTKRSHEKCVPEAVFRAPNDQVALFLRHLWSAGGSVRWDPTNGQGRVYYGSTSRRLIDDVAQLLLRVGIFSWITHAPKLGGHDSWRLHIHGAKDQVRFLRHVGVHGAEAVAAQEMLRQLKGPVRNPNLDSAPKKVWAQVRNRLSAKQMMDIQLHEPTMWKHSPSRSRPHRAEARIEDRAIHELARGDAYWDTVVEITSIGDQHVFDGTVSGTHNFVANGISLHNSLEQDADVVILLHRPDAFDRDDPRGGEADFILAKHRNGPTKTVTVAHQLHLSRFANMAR

[16] = target: T4, Protein RecA (Mycobacterium tuberculosis, UniProt P9WHJ3); assay: Fluorescence Cell-Free Homogeneous Dose Retest to Identify Inhibitors of RecA-Intein Splicing Activity. [Related pubchem assays (depositor defined):AID2097, AID2223, AID489010, AID492950]; format: functional
T4 sequence (P9WHJ3 whole entry): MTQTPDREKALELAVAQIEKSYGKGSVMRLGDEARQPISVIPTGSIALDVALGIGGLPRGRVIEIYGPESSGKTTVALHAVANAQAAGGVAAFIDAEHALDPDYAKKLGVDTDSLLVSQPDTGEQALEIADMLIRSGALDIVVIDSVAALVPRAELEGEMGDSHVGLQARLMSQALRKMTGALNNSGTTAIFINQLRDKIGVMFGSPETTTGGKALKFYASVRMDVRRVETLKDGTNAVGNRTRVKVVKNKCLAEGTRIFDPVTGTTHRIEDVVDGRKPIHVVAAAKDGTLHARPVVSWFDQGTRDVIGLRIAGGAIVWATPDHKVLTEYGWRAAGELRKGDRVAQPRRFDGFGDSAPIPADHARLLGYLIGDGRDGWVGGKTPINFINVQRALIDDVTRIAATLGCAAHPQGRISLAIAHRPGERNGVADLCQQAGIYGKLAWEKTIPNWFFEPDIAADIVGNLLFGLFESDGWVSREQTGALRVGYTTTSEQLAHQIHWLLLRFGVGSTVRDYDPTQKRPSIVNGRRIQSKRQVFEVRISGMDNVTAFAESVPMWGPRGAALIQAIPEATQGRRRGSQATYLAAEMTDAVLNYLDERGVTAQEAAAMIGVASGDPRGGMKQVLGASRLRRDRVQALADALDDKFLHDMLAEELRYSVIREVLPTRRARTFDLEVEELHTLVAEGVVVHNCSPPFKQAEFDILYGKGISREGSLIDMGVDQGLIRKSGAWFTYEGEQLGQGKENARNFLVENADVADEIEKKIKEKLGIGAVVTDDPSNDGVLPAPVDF

[17] = target: UDP-galactopyranose mutase (Mycobacterium tuberculosis, UniProt P9WIQ1); assay: Inhibitors of Mycobacterium tuberculosis UDP-galactopyranose mutase (UGM) enzyme Measured in Biochemical System Using Plate Reader - 2105-02_Inhibitor_Dose_CherryPick_Activity. [Related pubchem assays (depositor defined):AID504439]
[18] = tested on: BJ; assay: BJ-TERT fibroblast viability loss – cell-based, RAS-independent, luminescence, dose response (AID 1933); format: functional; conditions: Homo sapiens
[19] = tested on: BJ; assay: cells; format: functional, cell-based; conditions: Homo sapiens
[20] = tested on: BJ; assay: BJ-TERT-LT-ST fibroblast viability loss – cell-based, RAS-independent, luminescence, dose response (AID 1935); format: functional; conditions: Homo sapiens;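 also: BJ fibroblasts immortalized with TERT plus LT and ST oncogenes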
[21] = DRD fibroblast viability loss – cell-based, non-viral oncogenic, luminescence, dose response (AID 1934); format: functional; conditions: Homo sapiens
[22] = HEK-293T viability loss after treatment – luminescence, T-cell screen hits, cytotoxicity control for TCR NF-kB inhibitor project, dose response (AID 489026); format: functional, cell-based;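 also: cells exposed to compound about 14 hours before the viability readout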
[23] = target: Intestinal-type alkaline phosphatase (Mus musculus, UniProt P24822); assay: PubChem AID 488875; format: functional
[24] = target: T5, Intestinal-type alkaline phosphatase (Homo sapiens, UniProt P09923); assay: human intestinal alkaline phosphatase activators, dose response, biochemical, luminescence, uHTS hits (AID 463120); format: functional
[25] = target: T5, Intestinal-type alkaline phosphatase; assay: activation of human intestinal alkaline phosphatase – biochemical, luminescent, uHTS hits, set 2, dose response (AID 488817); format: functional;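 also: potency of activators that raise enzyme activity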
[26] = target: T6, Alkaline phosphatase, tissue-nonspecific isozyme (Homo sapiens, UniProt P05186); assay: activation of tissue-nonspecific alkaline phosphatase – biochemical, TNAP isozyme, human IAP uHTS hits, selectivity assay for human IAP activator project, dose response (AID 488886); format: functional;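 also: potency of compounds raising TNAP activity as a selectivity check on IAP activators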
T6 sequence (P05186 whole entry): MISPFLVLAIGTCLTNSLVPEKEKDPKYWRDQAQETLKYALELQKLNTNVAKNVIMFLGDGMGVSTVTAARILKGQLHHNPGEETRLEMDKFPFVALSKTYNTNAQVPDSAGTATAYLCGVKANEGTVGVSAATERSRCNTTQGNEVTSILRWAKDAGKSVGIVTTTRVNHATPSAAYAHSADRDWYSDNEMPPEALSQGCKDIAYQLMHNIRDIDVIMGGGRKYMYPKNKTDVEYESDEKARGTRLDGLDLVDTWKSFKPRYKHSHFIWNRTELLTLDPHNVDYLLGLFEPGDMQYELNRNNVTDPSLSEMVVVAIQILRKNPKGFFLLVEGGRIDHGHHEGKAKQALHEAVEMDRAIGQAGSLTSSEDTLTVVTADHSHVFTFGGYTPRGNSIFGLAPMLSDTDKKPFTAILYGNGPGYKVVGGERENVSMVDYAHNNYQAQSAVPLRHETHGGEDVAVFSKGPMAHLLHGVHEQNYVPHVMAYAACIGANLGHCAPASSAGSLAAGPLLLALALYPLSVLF

[27] = target: SUMO E1/E2 (Homo sapiens, UniProt P63279+Q9UBE0+Q9UBT2); assay: SAR analysis of SUMOylation using HTRF in an in-Vitro dose response assay. [Related pubchem assays (depositor defined):AID2006, AID2011, AID2018, AID2069, AID2658]; format: functional
[28] = target: Kappa-type opioid receptor (Homo sapiens, UniProt P41145); assay: SAR analysis of small molecule agonists of the kappa opioid receptor via a luminescent beta-arrestin assay - Set 3. [Related pubchem assays (depositor defined):AID1777, AID1785, AID1786, AID1966, AID2133, AID2136, AID2284, AID2500]; format: functional
[29] = target: T7, Cytochrome P450 1A2 (Homo sapiens, UniProt P05177);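 also: PubChem cytochrome P450 panel assay, CYP1A2 panel member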
T7 sequence (P05177 whole entry): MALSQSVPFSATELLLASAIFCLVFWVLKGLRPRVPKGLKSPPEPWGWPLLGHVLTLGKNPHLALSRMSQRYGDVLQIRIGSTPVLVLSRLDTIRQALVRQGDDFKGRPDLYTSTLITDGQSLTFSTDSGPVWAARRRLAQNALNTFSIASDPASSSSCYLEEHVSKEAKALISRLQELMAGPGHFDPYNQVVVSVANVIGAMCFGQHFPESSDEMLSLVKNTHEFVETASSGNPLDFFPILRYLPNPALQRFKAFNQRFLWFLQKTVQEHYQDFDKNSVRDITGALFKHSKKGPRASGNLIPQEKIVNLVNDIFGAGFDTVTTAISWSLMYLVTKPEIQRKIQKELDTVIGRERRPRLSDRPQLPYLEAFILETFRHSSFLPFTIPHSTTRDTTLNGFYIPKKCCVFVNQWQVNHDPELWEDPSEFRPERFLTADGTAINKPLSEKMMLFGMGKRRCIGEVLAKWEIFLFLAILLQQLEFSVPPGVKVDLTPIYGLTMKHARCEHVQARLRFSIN

[30] = target: T7, Cytochrome P450 1A2; remark: listed apart in the source
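For CC50 in this document: cells exposed to compound for 72 hours before luminescence readout.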

T5 sequence (P09923 whole entry): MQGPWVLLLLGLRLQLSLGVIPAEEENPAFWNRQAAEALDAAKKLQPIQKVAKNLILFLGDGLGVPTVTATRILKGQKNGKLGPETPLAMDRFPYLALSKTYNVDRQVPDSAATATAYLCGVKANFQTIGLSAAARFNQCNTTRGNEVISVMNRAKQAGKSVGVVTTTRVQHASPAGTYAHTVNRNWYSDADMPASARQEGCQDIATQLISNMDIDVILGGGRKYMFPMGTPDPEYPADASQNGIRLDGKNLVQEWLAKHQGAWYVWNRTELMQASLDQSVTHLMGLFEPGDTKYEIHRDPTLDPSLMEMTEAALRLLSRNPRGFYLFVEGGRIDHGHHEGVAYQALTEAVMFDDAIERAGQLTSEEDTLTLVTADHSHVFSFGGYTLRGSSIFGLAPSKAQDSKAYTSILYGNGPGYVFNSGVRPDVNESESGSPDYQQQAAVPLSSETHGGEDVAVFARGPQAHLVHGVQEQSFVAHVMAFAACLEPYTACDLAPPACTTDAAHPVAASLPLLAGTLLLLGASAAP
Sequence of Phospholipase A2 (P04054 whole entry): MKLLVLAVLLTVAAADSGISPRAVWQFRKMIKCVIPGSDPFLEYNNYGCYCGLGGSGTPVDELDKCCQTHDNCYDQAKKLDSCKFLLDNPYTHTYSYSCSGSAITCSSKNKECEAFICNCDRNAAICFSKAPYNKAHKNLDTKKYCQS
Sequence of Intestinal-type alkaline phosphatase (Mus musculus, UniProt P24822) (P24822 whole entry): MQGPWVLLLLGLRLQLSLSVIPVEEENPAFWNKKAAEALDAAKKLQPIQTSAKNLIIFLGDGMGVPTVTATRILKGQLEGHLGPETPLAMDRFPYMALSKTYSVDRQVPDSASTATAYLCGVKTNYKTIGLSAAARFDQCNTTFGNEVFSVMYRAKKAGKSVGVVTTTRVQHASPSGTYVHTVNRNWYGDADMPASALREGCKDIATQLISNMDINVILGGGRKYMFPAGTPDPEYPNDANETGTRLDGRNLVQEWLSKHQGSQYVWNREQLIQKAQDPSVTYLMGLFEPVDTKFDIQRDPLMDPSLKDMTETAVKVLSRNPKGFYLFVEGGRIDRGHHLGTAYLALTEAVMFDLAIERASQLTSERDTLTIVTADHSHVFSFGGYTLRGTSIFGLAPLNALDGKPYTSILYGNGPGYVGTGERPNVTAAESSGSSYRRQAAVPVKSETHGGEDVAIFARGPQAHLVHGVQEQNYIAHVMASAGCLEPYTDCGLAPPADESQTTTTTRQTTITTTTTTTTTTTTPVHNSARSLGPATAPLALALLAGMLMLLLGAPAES
Sequence of SUMO E1/E2 (Q9UBE0 whole entry): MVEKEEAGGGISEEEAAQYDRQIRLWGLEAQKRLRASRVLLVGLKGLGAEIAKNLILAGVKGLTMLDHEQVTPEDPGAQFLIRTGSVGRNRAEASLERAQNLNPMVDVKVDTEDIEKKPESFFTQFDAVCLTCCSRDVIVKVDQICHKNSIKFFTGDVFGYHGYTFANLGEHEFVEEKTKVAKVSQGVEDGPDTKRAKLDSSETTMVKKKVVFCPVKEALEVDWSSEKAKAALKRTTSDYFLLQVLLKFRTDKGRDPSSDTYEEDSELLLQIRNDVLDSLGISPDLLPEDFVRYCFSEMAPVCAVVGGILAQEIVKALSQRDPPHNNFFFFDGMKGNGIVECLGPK
Sequence of SUMO E1/E2 (Q9UBT2 whole entry): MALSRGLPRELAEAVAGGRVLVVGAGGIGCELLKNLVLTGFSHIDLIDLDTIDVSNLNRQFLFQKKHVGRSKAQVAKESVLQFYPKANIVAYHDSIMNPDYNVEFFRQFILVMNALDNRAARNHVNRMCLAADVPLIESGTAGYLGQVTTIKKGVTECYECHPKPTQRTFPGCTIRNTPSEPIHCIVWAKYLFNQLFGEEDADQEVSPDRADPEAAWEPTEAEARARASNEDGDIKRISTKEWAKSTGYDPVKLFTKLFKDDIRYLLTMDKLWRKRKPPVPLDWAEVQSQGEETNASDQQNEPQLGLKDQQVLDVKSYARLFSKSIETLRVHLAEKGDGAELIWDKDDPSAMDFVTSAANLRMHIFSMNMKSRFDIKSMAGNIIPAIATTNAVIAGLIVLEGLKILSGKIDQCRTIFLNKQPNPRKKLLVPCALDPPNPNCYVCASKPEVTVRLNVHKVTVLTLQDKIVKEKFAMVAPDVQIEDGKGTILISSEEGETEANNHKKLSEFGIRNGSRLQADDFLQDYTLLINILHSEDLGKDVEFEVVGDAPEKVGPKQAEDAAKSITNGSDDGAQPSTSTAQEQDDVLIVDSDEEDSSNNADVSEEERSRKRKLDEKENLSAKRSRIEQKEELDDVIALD
Sequence of SUMO E1/E2 (P63279 whole entry): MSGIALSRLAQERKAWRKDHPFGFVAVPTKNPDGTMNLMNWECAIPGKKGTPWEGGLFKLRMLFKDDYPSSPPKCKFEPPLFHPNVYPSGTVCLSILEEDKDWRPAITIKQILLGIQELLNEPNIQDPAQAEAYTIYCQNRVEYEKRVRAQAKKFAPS
Sequence of UDP-galactopyranose mutase (P9WIQ1 whole entry): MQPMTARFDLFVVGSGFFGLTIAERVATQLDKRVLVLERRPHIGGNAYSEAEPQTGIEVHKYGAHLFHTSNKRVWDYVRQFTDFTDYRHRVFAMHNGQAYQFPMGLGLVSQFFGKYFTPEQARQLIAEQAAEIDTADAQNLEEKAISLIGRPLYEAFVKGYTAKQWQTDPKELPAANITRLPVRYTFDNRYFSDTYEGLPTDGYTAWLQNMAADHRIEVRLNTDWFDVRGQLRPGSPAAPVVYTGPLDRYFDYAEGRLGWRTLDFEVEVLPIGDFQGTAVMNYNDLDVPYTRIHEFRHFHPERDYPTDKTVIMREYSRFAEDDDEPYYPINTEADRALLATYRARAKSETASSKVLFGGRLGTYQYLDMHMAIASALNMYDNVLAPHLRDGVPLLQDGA
Sequence of Kappa-type opioid receptor (P41145 whole entry): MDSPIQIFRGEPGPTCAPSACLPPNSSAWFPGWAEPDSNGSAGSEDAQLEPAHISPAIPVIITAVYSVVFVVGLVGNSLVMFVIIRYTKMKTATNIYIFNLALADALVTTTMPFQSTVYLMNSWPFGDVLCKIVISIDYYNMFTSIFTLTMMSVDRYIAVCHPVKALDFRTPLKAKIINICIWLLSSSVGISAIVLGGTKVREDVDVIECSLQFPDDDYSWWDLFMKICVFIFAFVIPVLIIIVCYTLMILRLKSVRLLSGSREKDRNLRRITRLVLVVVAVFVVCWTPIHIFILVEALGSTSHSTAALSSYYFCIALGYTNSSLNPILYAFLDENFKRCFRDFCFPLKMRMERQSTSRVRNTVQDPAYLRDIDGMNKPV

CCn1c(SCc2ccccc2Cl)nc2nc3c(cc2c1=O)CCCC3
IC50 [1]: 12.5 µM (active)
IC50 [2]: 4.98 µM (active)
EC50 [3]: > 59.6 µM (inactive)
EC50 [4]: > 59.6 µM (inactive)

O=C(CCl)N(c1ccc(Cl)cc1)c1c[nH]c2ccccc12
EC50 [5]: 4.07 µM (inconclusive)
EC50 [6]: 13.2 µM (active)
EC50 [7]: 15.5 µM (active)
EC50 [8]: 2.72 µM (active)
EC50 [9]: 8.46 µM (active)
EC50 [10]: 0.412 µM (active)
EC50 [11]: < 6 µM (inconclusive)
CC50 [12]: 0.86 µM (active)
IC50 [13]: 15 µM (active)
AC50 [14]: 12.5 µM (active)
AC50 [15]: 2.46 µM (active)
EC50 [16]: 0.195 µM (active)

Cc1nn(C)cc1N1C(=O)c2cccc3c(N)ccc(c23)C1=O
AC50 [17]: 1.91 µM (active)

O=C(Cc1ccc(-c2ccccc2)cc1)NCc1ccccc1
EC50 [18]: 0.385 µM (active)
EC50 [19]: 13.6 µM (inconclusive)
EC50 [20]: 0.279 µM (inconclusive)
EC50 [21]: 0.489 µM (active)
IC50 [22]: > 80 µM (inactive)

Cc1ccccc1CN1CCC(n2nccc2NC(=O)CCCc2ccccc2)CC1
EC50 [23]: 61 µM (active)
EC50 [24]: 70.7 µM (active)
EC50 [25]: 64.1 µM (active)
EC50 [26]: 63.4 µM (active)

COC(=O)c1ccc2c(c1)C1C=CCC1C(c1ccc(C(=O)O)cc1)N2 (stereo not given)
IC50 [27]: > 100 µM (inactive)

COc1ccc(Cn2c(SCc3ccc(Cl)c(C(F)(F)F)c3)nnc2-c2ccccn2)cc1
EC50 [28]: 18.8 µM (inactive)

c1cncc([C@@H]2CCCCN2)c1 [ANABASINE]
AC50 [29]: 5.01 µM (inconclusive)
AC50 [30]: inconclusive
